Measurements: patent publication US20230192660A1 (priority 2020, published 2023)
Converted amounts (≈) assume the structure as drawn. Read-outs that look alike come from different tables or passages of the source.

Tests used:
mature SARSCoV2 M^pro = mature SARSCoV2 M^pro (Severe acute respiratory syndrome coronavirus 2, UniProt P0DTD1); assay: biochemical; design: species or system SARS-CoV-2
MERS Mpro = MERS Mpro (Middle East respiratory syndrome-related coronavirus, UniProt K9N7C7); assay: biochemical
HCoV229E Mpro = HCoV229E Mpro (Human coronavirus 229E, UniProt P0C6X1); assay: biochemical
SARS-CoV-2 mature Mpro = SARS-CoV-2 mature Mpro (Severe acute respiratory syndrome coronavirus 2, UniProt P0DTD1); format: binding; conditions: 3 μM Mpro, 30 μM compound
in vitro [1] = conditions: human
in vitro [2] = conditions: human; remark: listed apart in the source
physchem = conditions: aqueous buffer, kinetic from dmso stock
in vitro [3] = conditions: human, Caco-2
in vitro [4] = conditions: mouse, plasma
MHV M^pro = MHV M^pro (UniProt P0C6X9); assay: In-vitro Mpro inhibition assay, MHV enzyme; format: biochemical, mouse hepatitis virus (MHV)
Human Cathepsin B = Human Cathepsin B (Homo sapiens, UniProt P07858); assay: Cathepsin B protease specificity assay (Z-LR-AMC substrate); format: biochemical; conditions: 0.05 ng/uL Cathepsin B, pH 5.5, 2 mM DTT; read-out: IC50 HCathepsin B
Human Cathepsin L = Human Cathepsin L (Homo sapiens, UniProt P07711); assay: biochemical; conditions: 0.01 ng/uL Cathepsin L, pH 5.5, 2 mM DTT; read-out: IC50 HCathepsin L
in vitro [5] = conditions: human; remark: listed apart in the source
in vitro [6] = conditions: human, Caco-2; remark: listed apart in the source
in vitro [7] = conditions: human plasma
[8] = after a maximal 800 mg oral dose; cited from earlier work
[9] = after a nasal dose; cited from earlier work
SARS-CoV-2 M^pro-His6 = SARS-CoV-2 M^pro-His6 (Severe acute respiratory syndrome coronavirus 2, UniProt P0DTD1); assay: biochemical; conditions: for inhibition at 150 µM: read-out: inhibition of enzyme activity
[10] = 20 nM SARSCoV2 Mpro, 30 min incubation, read-out: IC50 SARSCov2 Mpro
[11] = 100 nM MHV Mpro, read-out: IC50 MHV Mpro

Chain of HCoV229E Mpro (P0C6X1 2966-3267): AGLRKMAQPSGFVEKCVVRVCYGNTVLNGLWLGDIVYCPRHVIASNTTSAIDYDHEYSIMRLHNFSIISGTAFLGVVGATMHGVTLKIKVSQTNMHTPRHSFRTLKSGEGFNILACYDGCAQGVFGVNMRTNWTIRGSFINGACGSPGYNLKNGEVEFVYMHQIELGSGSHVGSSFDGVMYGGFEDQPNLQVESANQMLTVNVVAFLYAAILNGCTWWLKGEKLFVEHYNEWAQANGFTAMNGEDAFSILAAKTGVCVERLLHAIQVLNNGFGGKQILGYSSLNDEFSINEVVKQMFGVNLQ
Chain of MHV M^pro (P0C6X9 3334-3635): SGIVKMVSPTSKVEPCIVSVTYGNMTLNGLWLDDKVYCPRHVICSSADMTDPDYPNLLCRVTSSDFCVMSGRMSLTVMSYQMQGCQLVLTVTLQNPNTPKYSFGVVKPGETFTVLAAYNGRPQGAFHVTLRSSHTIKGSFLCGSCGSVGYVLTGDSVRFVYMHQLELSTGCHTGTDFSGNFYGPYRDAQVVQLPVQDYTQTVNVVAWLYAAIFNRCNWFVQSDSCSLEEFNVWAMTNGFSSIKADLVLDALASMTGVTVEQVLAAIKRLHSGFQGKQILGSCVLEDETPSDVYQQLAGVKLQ
Chain of MERS Mpro (K9N7C7 3248-3553 limits assumed): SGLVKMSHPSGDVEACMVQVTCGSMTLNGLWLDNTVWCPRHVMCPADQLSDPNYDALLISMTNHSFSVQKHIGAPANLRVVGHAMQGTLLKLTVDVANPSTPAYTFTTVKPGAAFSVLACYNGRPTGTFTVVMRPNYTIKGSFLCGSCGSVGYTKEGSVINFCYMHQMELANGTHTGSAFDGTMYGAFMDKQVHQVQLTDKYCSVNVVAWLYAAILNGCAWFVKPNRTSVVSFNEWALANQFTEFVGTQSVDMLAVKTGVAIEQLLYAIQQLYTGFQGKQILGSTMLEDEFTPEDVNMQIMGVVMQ
Chain of Human Cathepsin L (P07711 114-333): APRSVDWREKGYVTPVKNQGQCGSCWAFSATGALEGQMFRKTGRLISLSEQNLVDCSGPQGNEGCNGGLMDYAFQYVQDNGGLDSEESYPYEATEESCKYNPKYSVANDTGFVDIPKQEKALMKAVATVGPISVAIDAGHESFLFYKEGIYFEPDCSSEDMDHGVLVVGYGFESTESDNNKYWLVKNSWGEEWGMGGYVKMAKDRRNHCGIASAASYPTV

Row | SMILES | IC50 (MERS Mpro) [nM] | IC50 (HCoV229E Mpro) [nM] | ΔTm Mpro (SARS-CoV-2 mature Mpro) [°C] | CC50 (in vitro [1]) [nM] | CC50 (in vitro [2]) [nM] | solubility kinetic (physchem) [µM] | Papp A→B (in vitro [3]) [×10⁻⁶ cm/s] | Papp B→A (in vitro [3]) [×10⁻⁶ cm/s] | half-life (in vitro [4]) [h] | also measured
1 | CNC(=O)C(=O)[C@H](C[C@@H]1CCNC1=O)NC(=O)[C@@H]1[C@@H]2[C@H](CN1C(=O)[C@@H](NC(=O)C13CC(C1)C3)C(C)(C)C)C2(C)C [ML1002m] | 250 | 400 | 21 | > 100000 | > 100000 | > 100 | 0.4 | 0.7 | 2.83 | IC50 (mature SARSCoV2 M^pro; [10]): 20 nM
2 | CC(C)(C)NC(=O)N[C@H](C(=O)N1C[C@H]2[C@@H]([C@H]1C(=O)NC(CC1CCC1)C(=O)C(N)=O)C2(C)C)C(C)(C)C (stereo partly shown) [Boceprevir, boceprevir, reference compound] |  |  |  |  |  | 73 (≈ 37.9 µg/mL) | 2 | 29 | 0.467 | IC50 (MHV M^pro; [11]): 15000 nM; IC50 (MHV M^pro; read-out: IC50, 100 nM mature MHV M^pro at 30° C., 100 nM enzyme, 30° C.): 15000 ± 7000 nM; IC50 (Human Cathepsin B): 4500 nM; IC50 (Human Cathepsin L): 400 nM; CC50 (in vitro [5]): > 100000 nM; CC50 (in vitro [6]): > 100000 nM; half-life (in vitro [7]): 8.25 h; peak plasma concentration [8]: 3 µM
3 | CC(C)(C)CC(=O)N[C@H](C(=O)N1C[C@H]2[C@@H]([C@H]1C(=O)NC(C[C@@H]1CCNC1=O)C(=O)C(N)=O)C2(C)C)C(C)(C)C (stereo partly shown) [ML1001] | 260 | 500 | 21.6 | > 100000 | > 100000 | 66 (≈ 36.1 µg/mL) | < 0.2 | 0.5 | 0.433 | IC50 (MHV M^pro; [11]): 70 nM; IC50 (Human Cathepsin B): 42000 nM; IC50 (Human Cathepsin L): 33000 nM; CC50 (in vitro [6]): > 100000 nM; half-life (in vitro [7]): 5.5 h
4 | CCOC(=O)/C=C/[C@H](C[C@@H]1CCNC1=O)NC(=O)[C@@H](CC(=O)[C@@H](NC(=O)c1cc(C)on1)C(C)C)Cc1ccc(F)cc1 [rupintrivir] |  |  |  |  |  |  |  |  |  | concentration on nasal surfaces [9]: 5 µM
5 | CCN(CC)C(=S)SSC(=S)N(CC)CC [disulfiram] |  |  |  |  |  |  |  |  |  | inhibition at 150 µM (SARS-CoV-2 M^pro-His6): < 50%
6 | CC(C)c1nc(CN(C)C(=O)N[C@H](C(=O)N[C@@H](Cc2ccccc2)C[C@H](O)[C@H](Cc2ccccc2)NC(=O)OCc2cncs2)C(C)C)cs1 [ritonavir] |  |  |  |  |  |  |  |  |  | inhibition at 150 µM (SARS-CoV-2 M^pro-His6; 150 μM drug, 2 mM DTT, 100 nM M^pro-His6): < 50%; inhibition of M^pro activity (SARS-CoV-2 M^pro-His6; 150 μM, absence of DTT (air-equilibrated buffer)): no inhibitory effect
7 | CC(C)(C)[C@H](NC(=O)C12CC(C1)C2)C(=O)N1C[C@H]2[C@@H]([C@H]1C(=O)N[C@@H](C[C@@H]1CCNC1=O)C(=O)C(N)=O)C2(C)C [ML1002] | 190 | 260 | 21.6 | > 100000 | > 100000 | > 100 | < 0.2 | < 0.2 | 0.35 | IC50 (mature SARSCoV2 M^pro; [10]): 20 nM; IC50 (mature SARSCoV2 M^pro; Example 6, read-out: IC50 against SARS-CoV-2 Mpro): < 50 nM
8 | O=c1c2ccccc2[se]n1-c1ccccc1 [ebselen] |  |  |  |  |  |  |  |  |  | inhibition at 150 µM (SARS-CoV-2 M^pro-His6): < 50%
